These results are taken from US6682892B2, “Method for treating herpes viruses” (priority 2000, dated 2004).

Structures are written as SMILES.

The subject of experiment [1] is 4-oxo-DHQ resistant HSV-1, HSV-2 and HCMV mutants. The experiment in a line: Plaque reduction assay, 4-oxo-DHQ resistant mutants compared with parent virus. The class given is cell-based. To be noted: HSV-1 and HSV-2 mutants. Here is the method: (§1) Antiviral activity of compounds against herpesviruses such as HSV-1, HSV-2, or HCMV can be measured using plaque reduction assays. 0.1 ml of media containing approximately 50 PFU of virus is added to each well of a 24-well cell culture dish containing a confluent monolayer of cells (Vero cells for HSV-1 and HSV-2, HFF cells for HCMV). Compounds are dissolved in 100% DMSO and diluted in 100% DMSO as 200× stocks of the desired final drug concentration. Typically 5-6 two-fold dilutions are prepared for each compound. Dilutions of compounds are then added to media containing 0.8% CMC resulting in a final 1× drug concentration. After the virus-infected cells have incubated for 1 h at 37° C., the virus innoculum is removed and 1 ml of media containing 0.8% CMC and the various concentrations of compound is added to each well of the dish. The dish is incubated at 37° C. for approximately 2-3 days (HSV-1 and HSV-2) or 6-9 days (HCMV) to allow sufficient growth of virus to form plaques in the cell monolayer. Plaques can be observed and counted microscopically or by staining the cells with 0.1% crystal violet in 20% ethanol. […] The IC50 values are calculated by plotting the per cent inhibition vs. concentration of compound using EXCEL software for linear regression. […]
(In general: In a plaque reduction assay, fewer plaques than in the control indicate reduced infectivity or spread.)

A further experiment deals with HSV-1 DJL-M1 (V823A). The experiment in a line: Plaque reduction assay, 4-oxo-DHQ resistant HSV-1 DJL-M1. Type of experiment: cell-based. The note with it: Table 2, mutant V823A. Here is the method:
as §1

In a further experiment the test system is HSV-1 F. The experiment can be described thus: Plaque reduction assay, HSV-1 F. Type of experiment: cell-based. The note with it: Table 1, plaque reduction, Vero cells. On the procedure:
(§2) Antiviral activity of compounds against herpesviruses such as HSV-1, HSV-2, or HCMV can be measured using plaque reduction assays. 0.1 ml of media containing approximately 50 PFU of virus is added to each well of a 24-well cell culture dish containing a confluent monolayer of cells (Vero cells for HSV-1 and HSV-2, HFF cells for HCMV). Compounds are dissolved in 100% DMSO and diluted in 100% DMSO as 200× stocks of the desired final drug concentration. Typically 5-6 two-fold dilutions are prepared for each compound. Dilutions of compounds are then added to media containing 0.8% CMC resulting in a final 1× drug concentration. After the virus-infected cells have incubated for 1 h at 37° C., the virus innoculum is removed and 1 ml of media containing 0.8% CMC and the various concentrations of compound is added to each well of the dish. The dish is incubated at 37° C. for approximately 2-3 days (HSV-1 and HSV-2) or 6-9 days (HCMV) to allow sufficient growth of virus to form plaques in the cell monolayer. Plaques can be observed and counted microscopically or by staining the cells with 0.1% crystal violet in 20% ethanol. […] Antiviral activity of a compound is expressed as the concentration of compound predicted to reduce the number of plaques in a well by 50% (IC50). The IC50 values are calculated by plotting the per cent inhibition vs. concentration of compound using EXCEL software for linear regression.
(§3) A panel of viruses consisting of four strains of HSV-1 (KOS, F, DJL, Patton) and three strains of HSV-2 (MS, 35D, 186) are tested in a plaque reduction assay against four different 4-oxo-DHQ compounds (#1, 2, 4, 5 as shown in FIG. 1), and one 4-oxo-DHTP compound (#3 as shown in FIG. 1) and against Acyclovir. The six drugs inhibited replication of the seven virus strains with IC50 values ranging from 2-10 μM (Table 1). In order to select for 4-oxo-DHQ resistant mutants, HSV-1 strains KOS, F, and DJL along with HSV-2 strains 186 and MS are serially passaged in the presence of 20 uM compound 1. Following the seventh passage, 4-oxo-DHQ resistant virus from each strain are plaque purified three times and high-titer stocks are made.

For another experiment, the system named is HSV-2 MS-M1 (V826A). The experiment can be described thus: Plaque reduction assay, 4-oxo-DHQ resistant HSV-2 MS-M1. Type of experiment: cell-based. The note with it: Table 2, mutant V826A; read-out: IC50 (uM), HSV-2 MS-M1. On the procedure: as §2
Vero cells are plated out at a density of 3.5×10^5 cells per well in a six well tissue culture plate. Cells are infected with HSV-1 KOS at a multiplicity of infection (moi) of 0.1 pfu/cell and 1 h post infection the cells are overlayed with 3 ml media containing 20 uM of a 4-oxo-DHQ. Cultures are incubated for 20 h at 37° C., freeze/thawed to release cell-associated virus, and 0.1 ml of culture is used to infect a new monolayer of Vero cells (one passage). Serial passage is repeated seven times in the presence of 20 uM drug. Virus isolates are then plaque purified three times prior to preparation of stocks. 4-oxo-DHQ resistant HSV-1 and HSV-2 may also be selected by the marker transfer method described below using wild-type HSV DNA and the corresponding mutant HSV polymerase gene.
as §3

A further experiment deals with HSV-2 186-M1 (V828A). The experiment in a line: Plaque reduction assay, 4-oxo-DHQ resistant HSV-2 186-M1. Type of experiment: cell-based. The note with it: Table 2, mutant V828A. Here is the method: as §1
The target in the next experiment is HCMV (wild) polymerase (Human cytomegalovirus, UniProt P08546). The experiment can be described thus: In vitro polymerase assay, wild HCMV polymerase. Type of experiment: biochemical. The note with it: Table 3. On the procedure: In order to select for a 4-oxo-DHQ HCMV resistant mutant, virus (strain AD169) is serially passaged in the presence of 20 uM a 4-oxo-DHQ. […] In order to determine if both valines need to be changed in order to confer resistance to the 4-oxo-DHQ's, in vitro polymerase assays are done using mutant HCMV polymerases containing either V823A or V823A plus V824L (Table 3).

Experiment [2] has as its system HCMV AD169-M1 (V823A, V824L). The experiment can be described thus: Plaque reduction assay, 4-oxo-DHQ resistant HCMV AD169-M1. The class given is cell-based. To be noted: Table 4, plaque reduction, resistant mutant; read-out: HCMV AD169 - M1 IC50. On the procedure: as §2
A plasmid containing the wild-type HCMV polymerase gene is modified to contain the V823A or V823A and V824L mutations using a site-directed mutagenesis Kit (Stratagene Corp.) and following the manufactures's protocol. HFF cells are plated into T25 tissue culture flasks to achieve 80% confluency at the time of the transfection. Wild type HCMV AD 169 DNA and plasmid DNA containing the mutant HCMV polymerase gene are mixed at a ratio of 1:2 (2 ug of viral DNA to 4 ug of plasmid DNA). DNA's are transfected using superfect transfection reagent according to methods recommended by the manufacturer (Quiagen Inc.). Cells are harvested five days posttransfection, freeze-thawed to release virus and half of the sample is used to infect HFF cell monolayers. Cells are overlayed with media containing 20 uM 4-oxo-DHQ compound 2 (see FIG. 1). Serial passage is repeated seven times in the presence of 20 uM compound 2 and virus isolates are then plaque purified three times prior to preparation of viral stock.
In order to isolate an HCMV resistant mutant marker rescue experiments are done. Plasmids containing the mutant polymerase genes are transfected into HFF cells along with wild type HCMV AD169 DNA. The resulting virus is then serially passaged in the presence of 20 uM compound 1 (see FIG. 1). A 4-oxo-DHQ resistant virus is isolated from marker rescue studies done with the HCMV polymerase gene containing mutations that result in the V823A, V824L amino acid changes, but not with the gene containing V823A change alone.

HCMV (wild) polymerase, sequence (P08546 whole entry): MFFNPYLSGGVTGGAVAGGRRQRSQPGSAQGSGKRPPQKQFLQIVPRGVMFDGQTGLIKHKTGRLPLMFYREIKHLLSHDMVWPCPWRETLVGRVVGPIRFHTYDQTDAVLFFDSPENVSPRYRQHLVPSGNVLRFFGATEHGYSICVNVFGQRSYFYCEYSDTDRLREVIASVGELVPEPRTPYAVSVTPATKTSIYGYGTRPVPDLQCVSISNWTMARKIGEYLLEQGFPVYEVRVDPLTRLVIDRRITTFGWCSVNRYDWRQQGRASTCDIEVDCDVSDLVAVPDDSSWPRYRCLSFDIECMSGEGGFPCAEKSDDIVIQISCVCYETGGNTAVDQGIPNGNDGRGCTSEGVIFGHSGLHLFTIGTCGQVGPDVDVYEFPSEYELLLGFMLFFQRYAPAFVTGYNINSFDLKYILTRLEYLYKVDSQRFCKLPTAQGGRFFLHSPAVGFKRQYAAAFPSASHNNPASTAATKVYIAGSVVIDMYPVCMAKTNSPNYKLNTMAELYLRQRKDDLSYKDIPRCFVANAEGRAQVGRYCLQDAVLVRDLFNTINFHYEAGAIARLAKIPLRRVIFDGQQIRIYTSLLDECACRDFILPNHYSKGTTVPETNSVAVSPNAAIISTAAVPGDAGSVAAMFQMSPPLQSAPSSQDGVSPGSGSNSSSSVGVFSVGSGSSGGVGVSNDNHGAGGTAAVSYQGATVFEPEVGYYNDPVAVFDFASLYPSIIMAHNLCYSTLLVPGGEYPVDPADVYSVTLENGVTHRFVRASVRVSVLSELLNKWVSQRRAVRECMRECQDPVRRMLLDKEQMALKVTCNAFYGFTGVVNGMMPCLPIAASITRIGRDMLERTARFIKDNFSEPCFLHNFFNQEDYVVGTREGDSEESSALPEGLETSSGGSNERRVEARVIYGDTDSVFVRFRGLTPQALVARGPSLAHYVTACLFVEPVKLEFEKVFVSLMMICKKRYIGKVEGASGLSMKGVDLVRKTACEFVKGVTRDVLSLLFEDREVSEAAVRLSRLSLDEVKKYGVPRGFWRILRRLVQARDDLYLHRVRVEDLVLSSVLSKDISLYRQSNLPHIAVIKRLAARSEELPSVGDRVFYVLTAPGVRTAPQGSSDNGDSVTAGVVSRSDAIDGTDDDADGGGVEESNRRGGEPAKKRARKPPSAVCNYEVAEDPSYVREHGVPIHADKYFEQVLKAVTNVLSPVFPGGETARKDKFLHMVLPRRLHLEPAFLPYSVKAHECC

With `Cn1cc(C(=O)NCc2ccc(Cl)cc2)c(=O)c2cc(/C=C\CO)cc(F)c21` [Compound 1], the “increase in IC50, HSV mutants selected with compound 1” value in experiment [1] is recorded as > 10 fold. Also, the IC50 in the experiment on HSV-1 DJL-M1 (V823A) was > 20 µM; in the experiment on HSV-1 F, 2.5 µM; with HSV-2 MS-M1 (V826A) it was > 20 µM; with HSV-2 186-M1 (V828A), > 20 µM; at HCMV (wild) polymerase, 4.6 µM; in experiment [2] it was 4.7 µM.

Broadly, the IC50 is the midpoint of a concentration-inhibition curve.
